Where no end group is shown, it is not given here.
Tests used:
[1] = tested on: Human red blood cells (hRBCs); type: cell-based; details: for MHC (minimum hemolytic concentration): red cells of human, 1 h
Procedure: The hemolytic activity assay of these peptides was performed according to the method of [Gao et al. (2015)]. Human red blood cells (hRBCs) donated by a healthy adult were collected by centrifugation and washed by phosphate-buffered saline (PBS) solution (pH 7.2). 1% (v/v) suspension of hRBCs in PBS was incubated with different concentrations of peptides dissolved in PBS for 1 h at 37°C. Absorbance in the supernatant was monitored at 405 nm. hRBCs in 0.1% Triton X-100 and PBS were used as positive and negative controls, respectively. The hemolysis percentage was calculated as follows:
%hemolysis=[A-sampleA]blank/[A-TritonA]blank×100.
FIGURE 1 Hemolytic and toxicity activity of the peptides. (A,B) Hemolytic activity against hRBCs. (C,D) Toxicity activity against RAW264.7 cells. Hemolytic activity was evaluated by incubating individual peptides in serial 2-fold dilutions with freshly isolated hRBCs at 37°C for 1 h, followed by measuring the released hemoglobin at 405 nm. For negative and positive controls, hRBCs in PBS and 0.1% Triton X-100 were used, respectively. Toxicity activity of the peptides against RAW264.7 was determined using MTT method. The peptides were incubated with RAW264.7 in a 96-well microtiter plate. After incubation with MTT, the supernatant was discarded and DMSO was added and the optical density (OD) at 570 nm was measured.

[2] = tested on: E. faecalis ATCC 29212; type: cell-based, Enterococcus faecalis; details: ATCC 29212, 24 h
Procedure: (§1) Three types of Gram-positive bacteria (Staphylococcus epidermidis ATCC 12228, Staphylococcus aureus 29213 and Enterococcus faecalis ATCC 29212) and four types of Gram-negative bacteria (Escherichia coli UB1005, Escherichia coli ATCC 25922, Salmonella typhimurium ATCC 14028 and Salmonella pullorum C79–13) preserved in our lab were cultured in the medium of Muller-Hinton broth (MHB) medium (1.75% casamino acid, 0.2% beef extract, 0.15% soluble starch, pH 7.0). The murine macrophage cell line RAW 264.7 cells were procured from the American Type Culture Collection (Manassas, VA, United States) and cultured in DMEM containing 10% fetal bovine serum […], penicillin (100 units/ml) and streptomycin (100 units/ml) in 5% CO2 at 37°C.
(§2) The antimicrobial activity of peptides was examined against representative strains of Gram-positive bacteria (S. aureus ATCC 29213, S. epidermidis ATCC 12228 and E. faecalis ATCC 29212) and Gram-negative bacteria (E. coli ATCC 25922, E. coli UB1005, S. pullorum C79–13, and S. typhimurium ATCC 14028) which were cultured in MHB medium. Antimicrobial activity assay was performed according to a modified version of broth microdilution method ([Gao et al., 2015]). When grown to an OD600 of 0.4, the bacterial stains cultured in MHB were diluted to a final concentration of about 1 × 10^5 CFU/ml. Fifty microliter of microbial solution and 50 μl of two-fold diluted concentrations of peptides [0.2% (w/v) bovine serum albumin, 0.01% (v/v) acetic acid] were mixed in the sterile 96-well plate and cultured at 37°C for 24 h. MICs were identified as the lowest peptide concentration that no bacteria growth was observed by OD determination (492 nm). Each experiment was performed in triplicate. The geometric mean (GM) of the MICs of a peptide was calculated on the MIC values of the peptide against all tested bacteria, and was used to evaluate the antimicrobial activity of the peptide. The therapeutic index (TI) was defined as the ratio of the minimum hemolytic concentration (MHC) to the GM and was used to measure the peptide cell selectivity toward the component with negative charge of bacterial cell membranes over the zwitterionic membranes mammalian cells. TI was calculated as the ratio of the HC10 (the peptide concentration needed to reach 10% lysis of hRBCs) value to the GM (TI = HC10/GM).

[3] = tested on: E. coli ATCC 25922; type: cell-based, Escherichia coli; details: ATCC 25922, 24 h
Procedure: as §1, §2

[4] = tested on: E. coli UB1005; type: cell-based, Escherichia coli; details: UB1005, 24 h
Procedure: as §1, §2

[5] = tested on: all tested bacteria; test: MIC over all tested bacteria (geometric mean); type: cell-based; details: calculated on the MIC values against all tested bacteria (7 strains)
Procedure: as §1, §2

[6] = tested on: S. typhimurium ATCC 14028; type: cell-based, Salmonella typhimurium; details: ATCC 14028, 24 h
Procedure: as §1, §2

[7] = tested on: S. aureus ATCC 29213; type: cell-based, Staphylococcus aureus; details: ATCC 29213, 24 h
Procedure: as §1, §2

[8] = tested on: S. pullorum C79-13; type: cell-based, Salmonella pullorum; details: C79-13, 24 h
Procedure: as §1, §2

[9] = tested on: S. epidermidis ATCC 12228; type: cell-based, Staphylococcus epidermidis; details: ATCC 12228, 24 h
Procedure: as §1, §2

[10] = tested on: BALB/c mice challenged with lethal dose of LPS; test: Protection of mice from LPS-induced lethal infection; type: in vivo; details: male BALB/c mice, LPS 20 mg/kg i.p.; PMB 2.5 mg/kg or peptide 10 mg/kg i.p. 1 h after challenge
Procedure: The 6–8 week-old male BALB/c mice (purchased from Charles River Laboratories, Beijing, China) were used to investigate the protective effect in vivo of peptides on LPS-induced infection. All animals were raised under specific pathogen-free conditions and the protocol was authorized by the Animal Care Committee of Northeast Agricultural University. Mice were divided into four groups (12 mice per group). 1 h after a challenge with a lethal dose of LPS intraperitoneal injection (20 mg/kg⋅body weight), 4 groups of mice were injected intraperitoneally with 0.5 ml PBS, PMB (2.5 mg/kg⋅body weight), dCATH(1–16) or dCATH(5–20) (10 mg/kg⋅body weight). General behavior, onset and course of clinical disease and mortality of mice were observed every 12 h for a period of 7 days.
FIGURE 8 Survival of mice from LPS-induced lethal infection by dCATH(1–16) or dCATH(5–20). Mice were subjected to a lethal dose of LPS, followed by i.p. injection of CATH(1–16) or dCATH(5–20) at 10 mg/kg or an equal volume of PBS as controls (n = 12). Survival was recorded every 12 h over 7 days.

FWQLVPLAIKIYRAWKRR-NH2 [dCATH(3–20)]
hemolytic activity (in words) [1]: obvious hemolytic activity
MHC (minimum hemolytic concentration) [1]: 4 µM
MIC E. faecalis ATCC 29212 [2]: 2 µM
MIC E. coli ATCC 25922 [3]: 1 µM
MIC E. coli UB1005 [4]: 2 µM
GM (geometric mean of the MICs) [5]: 1.81 µM
MIC S. typhimurium ATCC 14028 [6]: 4 µM
MIC S. aureus ATCC 29213 [7]: 2 µM
MIC S. pullorum C79-13 [8]: 2 µM
MIC S. epidermidis ATCC 12228 [9]: 1 µM

KRFAQLVPLAIKIYRA-NH2 [dCATH(1–16)-4A]
hemolytic activity (in words) [1]: negligible hemolytic activity
MIC E. faecalis ATCC 29212 [2]: 32 µM
MIC E. coli ATCC 25922 [3]: 16 µM
MIC E. coli UB1005 [4]: 32 µM
GM (geometric mean of the MICs) [5]: 47.55 µM
MIC S. typhimurium ATCC 14028 [6]: 64 µM
MIC S. aureus ATCC 29213 [7]: 128 µM
MIC S. pullorum C79-13 [8]: 64 µM
MIC S. epidermidis ATCC 12228 [9]: 64 µM

KRFAQLVPLAIKIYRAAKRR-NH2 [dCATH-AA]
hemolytic activity (in words) [1]: negligible hemolytic activity
MIC E. faecalis ATCC 29212 [2]: 32 µM
MIC E. coli ATCC 25922 [3]: 32 µM
MIC E. coli UB1005 [4]: 16 µM
GM (geometric mean of the MICs) [5]: 39.01 µM
MIC S. typhimurium ATCC 14028 [6]: 64 µM
MIC S. aureus ATCC 29213 [7]: 64 µM
MIC S. pullorum C79-13 [8]: 32 µM
MIC S. epidermidis ATCC 12228 [9]: 64 µM

KRFWQLVPLAIKIYRA-NH2 [dCATH(1–16)]
MIC E. faecalis ATCC 29212 [2]: 8 µM
MIC E. coli ATCC 25922 [3]: 2 µM
MIC E. coli UB1005 [4]: 4 µM
GM (geometric mean of the MICs) [5]: 4.88 µM
MIC S. typhimurium ATCC 14028 [6]: 4 µM
MIC S. aureus ATCC 29213 [7]: 8 µM
MIC S. pullorum C79-13 [8]: 4 µM
MIC S. epidermidis ATCC 12228 [9]: 8 µM

KRFWQLVPLAIKIYRAW-NH2 [dCATH(1–17)]
hemolytic activity (in words) [1]: obvious hemolytic activity
MHC (minimum hemolytic concentration) [1]: 8 µM
MIC E. faecalis ATCC 29212 [2]: 2 µM
MIC E. coli ATCC 25922 [3]: 1 µM
MIC E. coli UB1005 [4]: 1 µM
GM (geometric mean of the MICs) [5]: 2.21 µM
MIC S. typhimurium ATCC 14028 [6]: 4 µM
MIC S. aureus ATCC 29213 [7]: 2 µM
MIC S. pullorum C79-13 [8]: 4 µM
MIC S. epidermidis ATCC 12228 [9]: 4 µM

KRFWQLVPLAIKIYRAWK-NH2 [dCATH(1–18)]
hemolytic activity (in words) [1]: obvious hemolytic activity
MHC (minimum hemolytic concentration) [1]: 8 µM
MIC E. faecalis ATCC 29212 [2]: 2 µM
MIC E. coli ATCC 25922 [3]: 1 µM
MIC E. coli UB1005 [4]: 2 µM
GM (geometric mean of the MICs) [5]: 1.81 µM
MIC S. typhimurium ATCC 14028 [6]: 2 µM
MIC S. aureus ATCC 29213 [7]: 2 µM
MIC S. pullorum C79-13 [8]: 2 µM
MIC S. epidermidis ATCC 12228 [9]: 2 µM

KRFWQLVPLAIKIYRAWKRR-NH2 [dCATH]
hemolytic activity (in words) [1]: obvious hemolytic activity
MHC (minimum hemolytic concentration) [1]: 4 µM
MIC E. faecalis ATCC 29212 [2]: 4 µM
MIC E. coli ATCC 25922 [3]: 2 µM
MIC E. coli UB1005 [4]: 2 µM
GM (geometric mean of the MICs) [5]: 3.62 µM
MIC S. typhimurium ATCC 14028 [6]: 8 µM
MIC S. aureus ATCC 29213 [7]: 4 µM
MIC S. pullorum C79-13 [8]: 4 µM
MIC S. epidermidis ATCC 12228 [9]: 4 µM

QLVPLAIKIYRA-NH2 [dCATH(5–16)]
hemolytic activity (in words) [1]: negligible hemolytic activity
MIC E. coli ATCC 25922 [3]: 64 µM
MIC E. coli UB1005 [4]: 128 µM
GM (geometric mean of the MICs) [5]: 190.21 µM

QLVPLAIKIYRAAKRR-NH2 [dCATH(5–20)-17A]
hemolytic activity (in words) [1]: negligible hemolytic activity
MIC E. faecalis ATCC 29212 [2]: 32 µM
MIC E. coli ATCC 25922 [3]: 64 µM
GM (geometric mean of the MICs) [5]: 70.66 µM
MIC S. typhimurium ATCC 14028 [6]: 64 µM
MIC S. aureus ATCC 29213 [7]: 32 µM
MIC S. epidermidis ATCC 12228 [9]: 32 µM

QLVPLAIKIYRAWKRR-NH2 [dCATH(5–20)]
MHC (minimum hemolytic concentration) [1]: 128 µM
MIC E. faecalis ATCC 29212 [2]: 4 µM
MIC E. coli ATCC 25922 [3]: 1 µM
MIC E. coli UB1005 [4]: 4 µM
GM (geometric mean of the MICs) [5]: 3.28 µM
MIC S. typhimurium ATCC 14028 [6]: 4 µM
MIC S. aureus ATCC 29213 [7]: 2 µM
MIC S. pullorum C79-13 [8]: 8 µM
MIC S. epidermidis ATCC 12228 [9]: 4 µM

WQLVPLAIKIYRAWKRR-NH2 [dCATH(4–20)]
hemolytic activity (in words) [1]: obvious hemolytic activity
MHC (minimum hemolytic concentration) [1]: 16 µM
MIC E. faecalis ATCC 29212 [2]: 2 µM
MIC E. coli ATCC 25922 [3]: 1 µM
MIC E. coli UB1005 [4]: 4 µM
GM (geometric mean of the MICs) [5]: 2.44 µM
MIC S. typhimurium ATCC 14028 [6]: 2 µM
MIC S. aureus ATCC 29213 [7]: 2 µM
MIC S. pullorum C79-13 [8]: 4 µM
MIC S. epidermidis ATCC 12228 [9]: 4 µM

polymyxin B [PMB]
onset and symptoms of disease (in words) [10]: delayed the onset of disease of mice with less severe symptoms
